According to patent publication US9114163B2, “Medication against breast cancer and related diseases” (MaBel GmbH, priority 2006, dated 2015):

Assays:
MCF-7 cells = test: Inhibition of MCF-7 cell proliferation (counting of vital cells); assay type: cell-based, human; settings: 10^-7 M, 10^-8 M, 10^-9 M; cell counts after 3, 6 and 9 days; compared with DHT and control
Protocol: MCF-7 cells were grown in RPMI 1640 medium at 37° C. to a cell number of about 1*10^5 cells/ml. Then, in quadruple identical MCF-7 cell samples, there were added either dihydrotestosterone (DHT) or 4-hydroxytestosterone (4-OHT), to obtain different concentrations thereof, namely 10^−7 M, 10^−8 M or 10^−9 M, and further growth of cells were determined by counting of vital cells. During the course of incubation at 37° C., cell counting were performed after 3, 6 and 9 days. For control, growth of MCF-7 cells were determined without addition of an active agent.
The results on an inhibition of MCF-7 cell proliferation are shown in FIGS. 1A, 1B and 1C for the compound concentrations of 10^−7 M, 10^−8 M and 10^−9 M of either DHT or 4-OHT, respectively, and compared with the control.

[1] = test system: normal or mastopathic breast tissue; test: Double blind clinical test, topical cream, patients with non-malign breast tissue; assay type: in vivo, human; settings: 4 patients with non-malign disease states, topical administration
Protocol: (§1) Double blind clinical tests were conducted with a group of 10 female patients. In this clinical testing, particular attention was paid to hormone receptor statuses of patients' target breast cancer tissue regarding progesterone receptor (PR) and in particular regarding estrogen receptor (ER); The cancers of the patients were assumed to be predominantly androgen receptor (AR) positive. Among this group, six patients had histologically ascertained malign breast carcinoma (C. mammae). […] In a sixth patient, the presence of a malign breast carcinoma was ascertained, but the amount of cancer tissue was too low to determine receptor status.
(§2) All 10 female patients were topically and locally treated using 4-hydroxytestosterone as active agent, by administering of a cream as described in Example 2 locally to target skin portions of the breasts. After continuing daily topical administration once a day during an administration period of 3 months, clinical investigations on therapeutic effects were performed.

[2] = test system: malign breast carcinoma (C. mammae); test: Double blind clinical test, topical cream, patients with malign breast carcinoma; assay type: in vivo, human; settings: for Clinical Remission: topical cream once a day
Protocol: as §1, §2
The results of the 6 patients having malign breast carcinoma are shown in the following Table 1, together with the receptor status determined for patient nos. 1 to 5.

SMILES: C[C@]12CC[C@H]3[C@@H](CCC4=C(O)C(=O)CC[C@@]43C)[C@@H]1CC[C@@H]2O [4-hydroxytestosterone, 4,17β-dihydroxyandrost-4-ene-3-one]
- inhibitory effect on MCF-7 cell proliferation (MCF-7 cells): significantly enhanced inhibitory effect
- tissue reduction of normal or mastopathic appearing tissues [1]: clear tendency for tissue reduction
- Clinical Remission ([2]; Patient # 1, ER 0, PR 0, Her2neu 0, 3 months): yes
- Clinical Remission ([2]; Patient # 3, ER 0, PR 0, Her2neu 0, 3 months): yes
- Clinical Remission ([2]; Patient # 6, receptor status not determined, 3 months): yes
- treatment of ER negative cancer cells ([2]; clinical study, ER negative tumours, topical cream, 3 months): effectively treated
- efficacy in shrinking cancerous tissues ([2]; clinical study, topical cream, 3 months): excellent efficacy in shrinking cancerous tissues
- patients with noticeable remission of breast cancer tissues as determined by mammography ([2]; of 6 patients with malign breast carcinoma, those so far subjected to post-treatment investigation, 3 months topical): three
